Measurements published in the supplement of paper PMC10307832.

Tests used:
Assay in all cases: relative viability (nuclei count vs DMSO), 5 days (fraction); higher = more cells survive
[1] = compound: Cc1ccc(C(=O)N(CCCN)[C@@H](c2nc3cc(Cl)ccc3c(=O)n2Cc2ccccc2)C(C)C)cc1 [Ispinesib] + COc1cccc2cc(-c3nc([C@H]4CC[C@H](C(=O)O)CC4)n4ncnc(N)c34)[nH]c12 [OSI-027] (partner 0.5 µM)
How it was run: (§1)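 Medians of duplicate plates are given as relative viability. That measure is the nuclei count in treated wells divided by the count in vehicle wells. Counts were taken on 4× images of lung cancer cell lines in 1536-well plates, 5 days after pin-tool dosing the day after seeding with one drug alone or a fixed anchor-drug dose plus five library-drug doses (not always all listed) in √10 steps.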

[2] = compound: Cc1ccc(C(=O)N(CCCN)[C@@H](c2nc3cc(Cl)ccc3c(=O)n2Cc2ccccc2)C(C)C)cc1 [Ispinesib] + CC(=O)Nc1cccc(-n2c(=O)n(C3CC3)c(=O)c3c(Nc4ccc(I)cc4F)n(C)c(=O)c(C)c32)c1 [Trametinib] (partner 0.02 µM)
How it was run: as §1

[3] = compound: C[C@]1(O)C[C@@H](c2nc(-c3ccc4ccc(-c5ccccc5)nc4c3)c3c(N)nccn32)C1 [Linsitinib] + CC(=O)Nc1cccc(-n2c(=O)n(C3CC3)c(=O)c3c(Nc4ccc(I)cc4F)n(C)c(=O)c(C)c32)c1 [Trametinib] (partner 0.02 µM)
How it was run: as §1

[4] = compound: Cc1ccc(C(=O)N(CCCN)[C@@H](c2nc3cc(Cl)ccc3c(=O)n2Cc2ccccc2)C(C)C)cc1 [Ispinesib] + NC(=O)Nc1cc(-c2cccc(F)c2)sc1C(=O)N[C@H]1CCCNC1 [AZD7762] (partner 0.2 µM)
How it was run: as §1

Cell Line	relative viability ([1]; first compound 0.001 µM)	relative viability ([1]; first compound 0.003162 µM)	relative viability ([1]; first compound 0.01 µM)	relative viability ([1]; first compound 0.03162 µM)	relative viability ([1]; first compound 0.1 µM)	relative viability ([2]; first compound 0.001 µM)	relative viability ([2]; first compound 0.003162 µM)	relative viability ([2]; first compound 0.01 µM)	relative viability ([2]; first compound 0.03162 µM)	relative viability ([2]; first compound 0.1 µM)	relative viability ([3]; first compound 0.01 µM)	relative viability ([3]; first compound 0.03162 µM)	relative viability ([3]; first compound 0.1 µM)	relative viability ([3]; first compound 0.3162 µM)	relative viability ([3]; first compound 1 µM)	relative viability ([4]; first compound 0.001 µM)	relative viability ([4]; first compound 0.003162 µM)	relative viability ([4]; first compound 0.01 µM)	relative viability ([4]; first compound 0.03162 µM)	relative viability ([4]; first compound 0.1 µM)
NCI-H2023	0.467	0.421	0.404	0.163	0.143	0.574	0.606	0.551	0.24	0.14	0.487	0.6	0.479	0.206	0.293					
NCI-H522	0.746	0.759	0.715	0.555	0.414	0.814	0.879	0.913	0.788	0.646	0.918	0.784	0.714	0.613	0.582	0.782	1.01	0.913	0.845	0.316
HOP-62	0.756	1.07	1.05	0.76	0.444	0.349	0.373	0.406	0.441	0.42	0.405	0.39	0.427		0.368	0.441	0.848	0.679	0.482	0.214
H3255	0.577	0.574	0.588	0.552	0.414	0.621	0.711	0.622	0.448	0.328		0.664	0.593	0.528	0.579	0.94	1.06	0.89	0.623	0.311
NCI-H1734	0.609	0.585	0.659	0.459	0.177	0.685	0.622	0.684	0.684	0.429	0.642	0.685	0.61	0.468	0.605	0.709	0.627	0.64	0.448	0.245
SK-MES-1	0.732	0.601	0.628	0.182	0.229	0.586	0.533	0.583	0.21	0.195	0.516	0.484	0.556	0.503	0.521					
NCI-H1792	0.889	1.09	0.743	0.862	0.356	0.42	0.463	0.515	0.398	0.117	0.506	0.432	0.335	0.32	0.335	0.73	0.742	0.828	0.119	0.157
EKVX	0.731	0.75	0.777	0.75	0.634	0.321		0.361	0.603	0.218		0.321	0.436	0.234	0.294	0.777		0.767	0.464	0.303
EPLC-272H	0.242	0.281	0.238	0.167	0.152	0.302	0.277	0.306	0.225	0.206	0.245	0.25	0.296		0.26	0.226	0.253	0.21	0.16	0.0883
LK-2	0.2	0.256	0.194	0.176	0.213	0.742	0.819	0.801	0.751	0.516	0.892	0.626	0.599	0.39	0.643	0.358	0.552	0.306	0.154	0.185
CAL-12T	0.737	0.584	0.701	0.166	0.177	0.353	0.315	0.28	0.294	0.215	0.347	0.364	0.292	0.28	0.318	0.707	0.74	0.594	0.52	0.212
NCI-H322M	0.621	0.529	0.549	0.448	0.331	0.529	0.586	0.449	0.514	0.467	0.513	0.548	0.571	0.531	0.473	0.561	0.654	0.464	0.494	0.484
NCI-H1650	0.573	0.718	0.623	0.174	0.271	0.726	0.581	0.556	0.417	0.315	0.592	0.524	0.537	0.464	0.349					
NCI-H1648	0.274	0.312	0.212	0.226	0.238	0.47	0.559	0.479	0.583	0.496	0.517	0.482	0.53	0.388	0.385	0.653	0.774	0.682	0.616	0.273
SW 1573	0.622	0.645	0.526	0.162	0.186	0.614	0.547	0.516	0.158	0.144	0.671	0.576	0.646	0.385	0.412					
NCI-H2405	0.655	0.657	0.755	0.635	0.389	0.708	0.632	0.525	0.566	0.478	0.66	0.6	0.607	0.708	0.401	0.867	0.791	0.73	0.711	0.363
LCLC-103H	0.562	0.585	0.527	0.366	0.357	0.724	0.7	0.723	0.667	0.654	0.658	0.56	0.688	0.632	0.647	0.849	0.836	0.887	0.484	0.434
HCC-44	0.458	0.812	0.505	0.484	0.151	1.06	1.05	1.09	1.07	1.11	0.94	1.04	1.01	0.716	0.923	0.983	1.1	1.02	1.03	0.756
RERF-LC-KJ	0.527	0.541	0.405	0.246	0.268	0.898	0.869	0.787	0.514	0.528	0.903	0.829	0.87	0.731	0.771	0.88	1.1	1.07	0.701	0.243

Cell Line	relative viability ([1]; first compound 0.001 µM)	relative viability ([1]; first compound 0.003162 µM)	relative viability ([1]; first compound 0.01 µM)	relative viability ([1]; first compound 0.03162 µM)	relative viability ([1]; first compound 0.1 µM)	relative viability ([2]; first compound 0.001 µM)	relative viability ([2]; first compound 0.003162 µM)	relative viability ([2]; first compound 0.01 µM)	relative viability ([2]; first compound 0.03162 µM)	relative viability ([2]; first compound 0.1 µM)	relative viability ([3]; first compound 0.01 µM)	relative viability ([3]; first compound 0.03162 µM)	relative viability ([3]; first compound 0.1 µM)	relative viability ([3]; first compound 0.3162 µM)	relative viability ([3]; first compound 1 µM)	relative viability ([4]; first compound 0.001 µM)	relative viability ([4]; first compound 0.003162 µM)	relative viability ([4]; first compound 0.01 µM)	relative viability ([4]; first compound 0.03162 µM)	relative viability ([4]; first compound 0.1 µM)
NCI-H1975	0.781	0.819	0.991	0.258	0.127	0.345	0.337	0.364	0.158	0.158	0.396	0.336	0.331	0.308	0.272	0.678	0.829	0.781	0.617	0.279
LCLC-97TM1	0.629	0.616	0.553	0.239	0.12	0.219	0.238	0.219	0.169	0.137	0.215	0.174	0.156	0.171	0.196	0.322	0.348	0.326	0.247	0.119
NCI-H520	0.249	0.218	0.276	0.19	0.169	0.775	0.663	0.557	0.229	0.221	0.618	0.64	0.641		0.712					
A-427	0.508	0.449	0.571	0.155	0.181	0.721	0.811	0.745	0.463	0.226	0.779	0.69	0.707		0.626	0.853	0.817	0.976	0.462	0.32
ABC-1	0.488	0.524	0.58	0.203	0.283											0.981	1.21	0.852	0.395	0.301
NCI-H460	0.787	0.835	1.03	0.417	0.0414	0.225	0.207	0.218	0.0463	0.0454	0.136	0.137	0.196		0.0792	0.711	0.757	1.01	0.632	0.0769
NCI-H1395	0.642	0.681	0.67	0.384	0.316	1.13	1.1	1.06	0.682	0.409	1		1.05	0.961	1.03	0.411	0.403	0.356	0.31	0.355
NCI-H23	0.581	0.656	0.808	0.235	0.201	0.372	0.472	0.32	0.358	0.208	0.49	0.371	0.337	0.244	0.256	0.202	0.254	0.274	0.184	0.157
LOU-NH91	0.72	0.776	0.83	0.59	0.236	0.772	0.774	0.814	0.725	0.309	0.766	0.727	0.779	0.56	0.715	0.807	0.854	0.877	0.432	0.297
NCI-H2009	0.702	0.695	0.618	0.212	0.211	0.28	0.271	0.287	0.203	0.151	0.275	0.266	0.256	0.307	0.242					
SK-LU-1	0.395	0.386	0.445	0.216	0.199	0.506	0.524	0.458	0.359	0.356	0.551	0.349	0.538	0.471	0.534					
NCI-H2228	0.609	0.553	0.636	0.222	0.209	0.615	0.496	0.415	0.263	0.28	0.569	0.595	0.378	0.347	0.363					
NCI-H1563	0.841	0.768	0.834	0.843	0.536															
NCI-H1703																0.16	0.121	0.134	0.0817	0.0822
NCI-H661	0.744	0.831	0.721	0.493	0.263	0.625	0.616	0.567	0.274	0.277	0.657	0.616	0.533	0.598	0.548					
COR-L23	0.808	0.918	0.931	0.357	0.214	0.611	0.565	0.376	0.103	0.168	0.623	0.505	0.548	0.475	0.507					
NCI-H1623	0.433	0.439	0.451	0.406	0.4															
COR-L 105	0.769	0.603	0.585	0.266	0.305	0.466	0.424	0.426	0.363	0.377	0.427	0.448	0.441	0.412	0.389					
